Data: ChEMBL document CHEMBL1126999, “Anticonvulsant sugar sulfamates. Potent cyclic sulfate and cyclic sulfite analogues of topiramate” (Bioorg Med Chem Lett, 1993)

What was measured:
Mus musculus [1] = test: Tested for anticonvulsant activity against mice at 4 hr at a peroral dose of 10 mg/Kg by maximal electroshock seizure (MES) test; format: functional
Mus musculus [2] = test: Tested for anticonvulsant activity against mice at 4 hr at a peroral dose of 75 mg/Kg by maximal electroshock seizure (MES) test; format: functional
Mus musculus [3] = test: Tested for effective dose required to produce anticonvulsant activity against mice at 4 hr (po); format: functional
Mus musculus [4] = test: Tested for anticonvulsant activity against mice at 4 hr at a peroral dose of 300 mg/Kg by maximal electroshock seizure (MES) test; format: functional
Mus musculus [5] = test: Tested for anticonvulsant activity against mice at 4 hr at a peroral dose of 1 mg/Kg by maximal electroshock seizure (MES) test; format: functional
Mus musculus [6] = test: Tested for anticonvulsant activity against mice at 4 hr at a peroral dose of 200 mg/Kg by maximal electroshock seizure (MES) test; format: functional
Mus musculus [7] = test: Tested for effective dose required to produce anticonvulsant activity against mice at 16 hr (po); format: functional
[8] = Therapeutic index relative to neurotoxicity ([…]) was determined in the rotarod test.
Mus musculus [9] = test: Tested for anticonvulsant activity against mice at 4 hr at a peroral dose of 35 mg/Kg by maximal electroshock seizure (MES) test; format: functional
Mus musculus [10] = test: Tested for anticonvulsant activity against mice at 4 hr at a peroral dose of 60 mg/Kg by maximal electroshock seizure (MES) test; format: functional
Mus musculus [11] = test: Tested for anticonvulsant activity against mice at 4 hr at a peroral dose of 3 mg/Kg by maximal electroshock seizure (MES) test; format: functional
[12] = Mus musculus, po, 4 h, read-out: ED50

SMILES | Block (Mus musculus [1]) [%] | Block (Mus musculus [2]) [%] | ED50 (Mus musculus [3]; [12]) [mg/kg] | also measured
CC1(C)O[C@H]2[C@@H]3OS(=O)(=O)O[C@@H]3CO[C@@]2(COS(=O)(=O)NC2CCCCCCC2)O1 | 0 | 30 | – | –
CC1(C)O[C@H]2[C@@H]3OS(=O)O[C@@H]3CO[C@@]2(COS(N)(=O)=O)O1 (stereo in doubt; 3a) | 70 | – | 6.3 | –
CC1(C)O[C@H]2[C@@H]3OS(=O)(=O)O[C@@H]3CO[C@@]2(COS(=O)(=O)Nc2ccccc2)O1 | – | 0 | – | Block (Mus musculus [4]): 0%
CC1(C)O[C@H]2[C@@H]3OS(=O)(=O)O[C@@H]3CO[C@@]2(COS(=O)(=O)NC2CC2)O1 | 90 | – | 7.3 | Block (Mus musculus [5]): 0%
O=C1NC(=O)C(c2ccccc2)(c2ccccc2)N1 [PHENYTOIN] | – | – | 6.4 | –
CN(C)S(=O)(=O)OC[C@@]12OC[C@H]3OC(C)(C)O[C@H]3[C@@H]1OC(C)(C)O2 | – | 0 | – | Block (Mus musculus [6]): 80%
CC1(C)O[C@H]2[C@@H]3OS(=O)(=O)O[C@@H]3CO[C@@]2(COS(=O)(=O)NCC(F)(F)F)O1 | 40 | 90 | – | –
CC1(C)O[C@H]2[C@@H]3OS(=O)(=O)O[C@@H]3CO[C@@]2(COS(=O)(=O)NC2CCC2)O1 | 90 | – | – | Block (Mus musculus [5]): 0%
C=CCNS(=O)(=O)OC[C@@]12OC[C@H]3OS(=O)(=O)O[C@H]3[C@@H]1OC(C)(C)O2 | 70 | – | – | Block (Mus musculus [5]): 0%
CNS(=O)(=O)OC[C@@]12OC[C@H]3OS(=O)(=O)O[C@H]3[C@@H]1OC(C)(C)O2 | 100 | – | 7.4 | –
CC1(C)O[C@H]2[C@@H]3OS(=O)(=O)O[C@@H]3CO[C@@]2(COS(N)(=O)=O)O1 | 80 | – | 6.3 | ED50 (Mus musculus [7]): 41.5 mg/kg; selectivity ratio [8]: > 150
CCCCCCCCNS(=O)(=O)OC[C@@]12OC[C@H]3OS(=O)(=O)O[C@H]3[C@@H]1OC(C)(C)O2 | 0 | 100 | – | –
CCCCNS(=O)(=O)OC[C@@]12OC[C@H]3OS(=O)(=O)O[C@H]3[C@@H]1OC(C)(C)O2 | 30 | – | – | Block (Mus musculus [9]): 100%
CNS(=O)(=O)OC[C@@]12OC[C@H]3OC(C)(C)O[C@H]3[C@@H]1OC(C)(C)O2 | – | 60 | – | Block (Mus musculus [6]): 100%
CC1(C)O[C@H]2[C@@H]3OS(=O)O[C@@H]3CO[C@@]2(COS(N)(=O)=O)O1 (stereo in doubt; 3b) | – | – | – | ED50 (Mus musculus [3]): 6.5 mg/kg
CC1(C)O[C@@H]2[C@@H](CO[C@@]3(COS(N)(=O)=O)OC(C)(C)O[C@@H]23)O1 [TOPIRAMATE] | – | – | – | Block (Mus musculus [10]): 60%; ED50 (Mus musculus [7]): 720 mg/kg; ED50 (Mus musculus [3]): 53.5 mg/kg
CN(C)S(=O)(=O)OC[C@@]12OC[C@H]3OS(=O)(=O)O[C@H]3[C@@H]1OC(C)(C)O2 | 70 | – | 6.9 | Block (Mus musculus [9]): 100%
CCNS(=O)(=O)OC[C@@]12OC[C@H]3OS(=O)(=O)O[C@H]3[C@@H]1OC(C)(C)O2 | – | – | 14.4 | Block (Mus musculus [11]): 0%; Block (Mus musculus [9]): 100%
CCN(CC)S(=O)(=O)OC[C@@]12OC[C@H]3OS(=O)(=O)O[C@H]3[C@@H]1OC(C)(C)O2 | 10 | 100 | – | –
CC1(C)O[C@H]2[C@@H]3OS(=O)(=O)O[C@@H]3CO[C@@]2(COS(=O)(=O)NCc2ccccc2)O1 | 0 | 100 | – | –
